# What was measured:
# miR-18a [1] = assay: Ribonuclease activity assay at different concentrations of MgCl2; format: biochemical; conditions: 50 mM Tris-HCl pH 7.0, 100 mM KCl, 1 mM DTT, 0.02 mg/mL BSA, 37 °C, 48 h; for Cleavage: miRNA 1 µM, DC 20 µM, mean ± s.e.
# Experimental: In order to understand the effect of Mg^2+ ions on the efficiency and specificity of miRNA cleavage by DCs, miR-18a was incubated with the matching DC in the buffer containing 50 mM Tris-HCl, pH 7.0, 100 mM KCl, 1 mM DTT, 0.02 mg/mL BSA, but with different Mg^2+ concentration varied from 0 to 15 mM.
# Reaction with different concentration of MgCl2 was performed in reaction mixtures (8 µL) containing 320 cpm (Cherenkov’s counting) of [^32P]-miR-18a, 1 μM unlabeled miRNA, 20 µM of miR-18a-DC in buffers contained 100 mM KCl, 50 mM Tris-HCl pH 7.0, 1mM DTT, 0.02 mg/mL BSA and MgCl2 at concentration 0, 2, 4, 8 or 15 mM at 37 °C for 48 h. RNA cleavage products were collected and analyzed as described above.
# miR-18a [2] = assay: Gel-retardation assay, hybridization with miR-18a; format: binding; conditions: 37 °C, 45 min, mean of 3
# Text: We carried out a comparative analysis of the hybridization properties of the developed DCs with the corresponding SCs, which were the products of the first stage of the DCs synthesis. As discussed above, each SC consisted of the corresponding oligonucleotide A, which was complementary to the 5′-region of the matching miRNA target, and the catalytic peptide [LRLRG]2, attached to the 5′-end of this oligonucleotide via a thiohexyl linker (linker 2). […] Indeed, the level of binding of DCs to their miRNA targets reached 96, 90, 75, 55% at equimolar concentration (1 μM), and 99, 96, 92 and 69% at 5-fold excess of DCs over miR-17, miR-18a, miR-21 and miR-155, respectively (Figure 2). […]
# The reaction mixture (4 µL) containing 50 mM Tris-HCl, pH 7.0, 200 mM KCl and 1 mM EDTA, 100 cpm (Cherenkov’s counting) of [^32P]-miRNA, 1 μM unlabeled miRNA, a conjugate at a concentration ranging from 0.1 to 10 μM was incubated at 37 °C for 45 min and quenched by adding of a loading buffer (20% ficoll, 0.025% bromophenol blue, 0.025% xylene cyanol). […] Formation of the complex miRNA/conjugate was analyzed by electrophoresis in 15% native PAAG at 4 °C. The gels were analyzed using Molecular Imager FX. The extent of binding of conjugate to miRNA was determined as a ratio of radioactivity measured in the complex to the total radioactivity applied onto the gel lane.
substance,measurement,setting,value
"TATCTGC–linker 1–[GRLRL]2–linker 2–ATGCACCTTA [miRNA-18a-DC, Dual oligonucleotide-peptide conjugate targeted to miR-18a: catalytic peptide [LRLRG]2 between two 2-aminoadenine-containing oligodeoxyribonucleotides]",Cleavage,miR-18a [1]; Mg2+ 0 mM,26.4±4.0%
same,Cleavage,miR-18a [1]; Mg2+ 2 mM,28.8±3.9%
same,Cleavage,miR-18a [1]; Mg2+ 4 mM,24.3±2.7%
same,Cleavage,miR-18a [1]; Mg2+ 8 mM,23.1±3.1%
same,Cleavage,miR-18a [1]; Mg2+ 15 mM,27.2±4.3%
same,"ribonuclease activity of DC (cleavage), unaffected by addition of Mg2+",miR-18a [1]; Mg2+ varied from 0 to 15 mM,approximately 26%
same,level of binding of DC to miRNA target,"miR-18a [2]; 5-fold excess of DC over miRNA (1 µM), same buffer",96%
same,level of binding of DC to miRNA target,"miR-18a [2]; equimolar, DC 1 µM : miRNA 1 µM, 50 mM Tris-HCl pH 7.0, 200 mM KCl, 1 mM EDTA",90%

# — publication PMC7287882, “Dual miRNases for Triple Incision of miRNA Target: Design Concept and Catalytic Performance” (Molecules, 2020)
